Laboratory results published in patent US8309685B2 (Celgene Avilomics Research, Inc., priority 2007, dated 2012).

Experiments:
[1] = molecular target: T1, HCV R155K (NS3/4A 1b protease) (Hepatitis C virus genotype 1b, UniProt P26663, R1181K); assay: HCV Protease FRET Assay (IC50), R155K mutant; assay type: biochemical; conditions: R155K enzyme, read-out: Inhibition, HCV R155K
T1 construct: 10× stocks of NS3/4A protease enzyme from Bioenza (Mountain View, Calif.); purchased Bioenza (Mountain View, Calif.)
Description: HCV Protease FRET Assay for Wild Type and Mutated NS3/4A 1b Enzymes (IC50)
The protocol is a modified FRET-based assay (v—02) from In Vitro Resistance Studies of HCV Serine Protease Inhibitors, 2004, JBC, vol. 279, No. 17, pp 17508-17514.
10× stocks of NS3/4A protease enzyme from Bioenza (Mountain View, Calif.) and 1.13× 5-FAM/QXL™ 520 FRET peptide substrate from Anaspec (San Jose, Calif.) were prepared in 50 mM HEPES, pH 7.8, 100 mM NaCl, 5 mM DTT and 20% glycerol. 5 μL of each enzyme were pre-incubated in a Corning (#3573) 384-well, black, non-treated microtiter plate (Corning, N.Y.) for 30 min at 25° C. with a 0.5 μL volume of 50% DMSO and serially diluted compounds prepared in 50% DMSO. Protease reactions were started with the addition of 45 μL of the FRET substrate and monitored for 120 minutes at λex487/λem514 through Quad^4 monochromoters in a Synergy^4 plate reader from BioTek (Winooski, Vt.). At the conclusion of each assay, progress curves from each well were examined for linear reaction kinetics and fit statistics (R^2, absolute sum of squares). Initial velocity (0 minutes to 30+ minutes) from each reaction was determined from the slope of a plot of relative fluorescence units vs time (minutes) and then plotted against inhibitor concentration to estimate IC50 from log[Inhibitor] vs Response, Variable Slope model in GraphPad Prism from GraphPad Software (San Diego, Calif.).
The compound numbers correspond to the compound numbers in Table 3. […] ;

[2] = system: HCV RNA replicon in cell line ET (luc-ubi-neo/ET), human Huh7 hepatoma; assay: Method A: HCV RNA replicon antiviral assay (luciferase, ET cell line); assay type: cell-based, Hepatitis C virus; conditions: Hepatitis C virus, Huh-7, assay described in Example 22; for IC50: read-out: Replicon (IC50)
In short: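 ET replicon cells (Huh7 carrying luciferase-reporter HCV replicon) plated at 5×10^3 cells/well and exposed 72 hr to six 3-fold drug concentrations in DMEM/5% FBS. Replicon luciferase gave EC50/EC90; CytoTox-1 cell counts gave IC50 (viability); […]. Interferon alpha-2b served as positive control.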

[3] = molecular target: T2, wild type HCV NS3/4A 1b protease enzyme (Hepatitis C virus genotype 1b, UniProt P26663); assay: HCV Protease FRET Assay (IC50_APP), wild type; assay type: biochemical; conditions: read-out: IC50_APP, WT; apparent IC50, wild type NS3/4A 1b
T2 construct: 10× stocks of NS3/4A protease enzyme from Bioenza (Mountain View, Calif.); purchased Bioenza (Mountain View, Calif.)

[4] = molecular target: T3, A156T mutant of the HCV NS3/4A 1b protease enzyme (Hepatitis C virus genotype 1b, UniProt P26663, A1182T); assay: HCV Protease FRET Assay (IC50_APP), A156T mutant; assay type: biochemical; conditions: apparent IC50, A156T mutant; read-out: IC50_APP, HCV A156T
T3 construct: 10× stocks of NS3/4A protease enzyme from Bioenza (Mountain View, Calif.); purchased Bioenza (Mountain View, Calif.)

[5] = molecular target: T4, D168A mutant of the HCV NS3/4A 1b protease enzyme (Hepatitis C virus genotype 1b, UniProt P26663, D1194A); assay: HCV Protease FRET Assay (IC50_APP), D168A mutant; assay type: biochemical; conditions: apparent IC50, D168A mutant; read-out: IC50_APP, HCV D168A
T4 construct: 10× stocks of NS3/4A protease enzyme from Bioenza (Mountain View, Calif.); purchased Bioenza (Mountain View, Calif.)

[6] = molecular target: T5, R155K mutant of the HCV NS3/4A 1b protease enzyme (Hepatitis C virus genotype 1b, UniProt P26663, R1181K); assay: HCV Protease FRET Assay (IC50_APP), R155K mutant; assay type: biochemical; conditions: apparent IC50, R155K mutant; read-out: IC50_APP, HCV R155K
T5 construct: 10× stocks of NS3/4A protease enzyme from Bioenza (Mountain View, Calif.); purchased Bioenza (Mountain View, Calif.)

[7] = molecular target: HCV protease mutant A156T (Hepatitis C virus genotype 1b, UniProt Q9WMX2, A1182T); conditions: biochemical assays, read-out: Comparative Ki Values, A156T; cited from earlier work
[8] = molecular target: HCV protease mutant D168A (Hepatitis C virus genotype 1b, UniProt Q9WMX2, D1194A); conditions: biochemical assays, cited from earlier work; for IC50: literature, read-out: Comparative IC50 Values, D168A; for Ki: read-out: Comparative Ki Values, D168A
[9] = molecular target: T6, NS3 protease self-cleavage in Huh-7-Luc-Neo-ET wild-type replicon cells (Hepatitis C virus genotype 1b, UniProt Q9WMX2, E1202G/T1280I); assay: Inhibition of protease self cleavage after compound removal, wild-type replicon cells; assay type: cell-based; conditions: 16 hours incubation, in as little as 4 hours after removal
T6 construct: host or cells: Huh-7-Luc-Neo-ET (human Huh7 hepatoma cells carrying the replicon)
Description: Inhibition of Protease Self Cleavage
Huh-7-Luc-Neo-ET cells were plated in Replicon Assay Medium (RPMI supplemented with 5% FBS, 1× non-essential amino acids and pen/strep) at a density of 1×10^5 cells/well in 12 well plates. Eight hours later the media was removed and replaced with 1 ml media containing test compound (5 wells per compound) and 0.02% DMSO and the cells were returned to the incubator overnight. Sixteen hours later 1 well from each compound and 1 untreated well were washed with PBS, then lysed and scraped into 30 ul of Cell Extraction Buffer (Biosource, Camarillo, Calif.) plus Complete Protease Inhibitor (Roche, Indianapolis, Ind.). The remaining wells were rinsed 2× with PBS then fed with Replicon Media and returned to the incubator. […]
Cell lysates were separated by SDS-Page (4-20%) and transferred to Immobilon-P PVDF membrane (Millipore Corporation, Mass.) and blotted with polyclonal anti NS3 antibody (Bioenza, Calif.). Blots were scanned on an Odyssey infrared scanner from Licor and the FL band and cleavage products were quantified separately using the Licor software provided with the scanner. The cleavage product was calculated as a percentage of the total NS3 in each sample and then normalized to the DMSO control so that the DMSO control reflects 100% activity.

Structure (SMILES)	IC50 [1] [nM]	IC90 [2] [nM]	IC50 [2] [nM]	IC50 [3] [nM]	IC50 [4] [nM]	IC50 [5] [nM]	IC50 [6] [nM]	Ki [7] [nM]	IC50 [8] [nM]	Ki [8] [nM]	Return of NS3 self-cleavage activity after drug removal [9]
C=CC(=O)NC[C@H](NC(=O)OC(C)(C)C)C(=O)N1C[C@H](Oc2nccc3ccc(Br)cc23)C[C@H]1C(=O)N[C@]1(C(=O)NS(=O)(=O)C2CC2)C[C@H]1C=C [Compound I-73, tert-butyl-(S)-3-acrylamido-1-((2S,4R)-4-(7-bromoisoquinolin-1-yloxy)-2-((1R,2S)-1-(cyclopropylsulfonylcarbamoyl)-2-vinylcyclopropylcarbamoyl)pyrrolidin-1-yl)-1-oxopropan-2-ylcarbamate]	< 10	100 to 1000	10 to 100	< 10	10 to 100	100 to 1000	10 to 100				
C=CC(=O)N[C@H](C)C(=O)N1C[C@H](Oc2nccc3ccc(Br)cc23)C[C@H]1C(=O)N[C@]1(C(=O)NS(=O)(=O)C2CC2)C[C@H]1C=C [Compound I-74, (2S,4R)-1-((R)-2-acrylamidopropanoyl)-4-(7-bromoisoquinolin-1-yloxy)-N-((1R,2S)-1-(cyclopropylsulfonylcarbamoyl)-2-vinylcyclopropyl)pyrrolidine-2-carboxamide]	< 10	10 to 100	10 to 100	< 10	10 to 100	100 to 1000	10 to 100				
C=C[C@@H]1C[C@]1(NC(=O)[C@@H]1C[C@@H](Oc2nccc3ccc(Br)cc23)CN1C(=O)[C@H](CCC(=O)C=C(C)C)NC(=O)OC(C)(C)C)C(=O)NS(=O)(=O)C1CC1 [Compound I-75, tert-butyl-(S)-1-((2S,4R)-4-(7-bromoisoquinolin-1-yloxy)-2-((1R,2S)-1-(cyclopropylsulfonylcarbamoyl)-2-vinylcyclopropylcarbamoyl)pyrrolidin-1-yl)-7-methyl-1,5-dioxooct-6-en-2-ylcarbamate]	10 to 100	10 to 100	< 10	< 10	100 to 1000	1000 to 10000	100 to 1000				
COc1ccc2c(O[C@@H]3C[C@H]4C(=O)N[C@]5(C(=O)O)C[C@H]5/C=C\CCCCC[C@H](NC(=O)OC5CCCC5)C(=O)N4C3)cc(-c3csc(NC(C)C)n3)nc2c1 [BILN 2061]								> 1200	1860	> 1200	
CCC[C@H](NC(=O)[C@@H]1[C@H]2CCC[C@H]2CN1C(=O)[C@@H](NC(=O)[C@@H](NC(=O)c1cnccn1)C1CCCCC1)C(C)(C)C)C(=O)C(=O)NC1CC1 [VX-950]								9900	193	150	virtually complete return of activity
